pIC50: −log10 of the molar value.
Key:
myeloperoxidase [1] = biological target: T1, myeloperoxidase (Homo sapiens, UniProt P05164); test: MPO Chlorination Assay (APF Assay); assay type: biochemical; details: potency range class, read-out: APF Assay IC50 value
T1 sequence (P05164 49-745): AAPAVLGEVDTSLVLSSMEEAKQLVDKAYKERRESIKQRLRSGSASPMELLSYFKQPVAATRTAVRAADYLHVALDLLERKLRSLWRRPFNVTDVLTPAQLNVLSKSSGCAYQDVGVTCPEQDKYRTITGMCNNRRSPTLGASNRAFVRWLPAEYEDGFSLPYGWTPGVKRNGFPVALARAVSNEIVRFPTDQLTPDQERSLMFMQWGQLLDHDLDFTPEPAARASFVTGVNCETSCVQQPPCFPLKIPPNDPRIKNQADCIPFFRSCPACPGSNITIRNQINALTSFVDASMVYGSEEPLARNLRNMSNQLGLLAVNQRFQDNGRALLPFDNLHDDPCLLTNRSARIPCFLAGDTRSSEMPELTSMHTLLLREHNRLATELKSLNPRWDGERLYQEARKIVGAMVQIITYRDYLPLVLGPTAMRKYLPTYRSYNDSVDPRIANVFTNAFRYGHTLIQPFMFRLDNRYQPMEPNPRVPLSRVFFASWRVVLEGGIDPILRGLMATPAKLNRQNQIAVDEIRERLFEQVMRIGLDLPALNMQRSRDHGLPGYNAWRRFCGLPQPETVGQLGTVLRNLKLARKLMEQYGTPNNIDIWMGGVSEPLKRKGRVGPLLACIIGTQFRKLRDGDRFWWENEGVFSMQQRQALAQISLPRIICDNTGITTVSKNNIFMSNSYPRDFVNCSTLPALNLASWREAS

myeloperoxidase [2] = biological target: T1, myeloperoxidase; test: MPO Peroxidation Assay (Amplex Red Assay); assay type: biochemical; details: potency range class, read-out: Amplex Red Assay IC50 value

| SMILES | pIC50 (myeloperoxidase [1]) | pIC50 (myeloperoxidase [2]) |
| --- | --- | --- |
| Nc1cc(C(CCNC2c3ccccc3CC2c2ccccc2)c2ccccc2)c2nn[nH]c2n1 (centres unmarked) [Example 46, 7-{1-phenyl-3-[(2-phenyl-2,3-dihydro-1H-inden-1-yl)amino]propyl}-3H-[1,2,3]triazolo [4,5-b]pyridin-5-amine] | 6.00 to 7.00 | 6.00 to 7.00 |
| Nc1cc(C(CCN[C@H]2CC[C@H](c3ccccc3)CC2)c2cccc(CO)c2)c2nn[nH]c2n1 (stereo partly drawn) [Example 164, [3-(1-{5-amino-3H-[1,2,3]triazolo [4,5-b]pyridin-7-yl}-3-{[(trans)-4-phenylcyclohexyl]amino}propyl)phenyl]methanol] | 7.00 to 9.00 | 5.00 to 6.00 |
| N#Cc1cccc(-c2cccc3[nH]c(C[C@H](c4ccccc4)c4cc(N)nc5[nH]nnc45)nc23)c1 [Example 252, (R)-3-(2-(2-(5-amino-3H-[1,2,3]triazolo [4,5-b]pyridin-7-yl)-2-phenylethyl)-1H-benzo[d]imidazol-4-yl)benzonitrile] | 7.00 to 9.00 | 5.00 to 6.00 |
| CN(C)C(=O)CN(CC[C@H](c1ccccc1)c1cc(N)nc2[nH]nnc12)C12CCC(c3ccccc3)(CC1)CC2 [Example 192, 2-{[(3R)-3-{5-amino-3H-[1,2,3]triazolo [4,5-b]pyridin-7-yl}-3-phenylpropyl]({4-phenylbicyclo[2.2.2]octan-1-yl})amino}-N,N-dimethylacetamide] | 7.00 to 9.00 | 5.00 to 6.00 |
| NCc1cccc(C(CCNC23CCC(c4ccccc4)(CC2)CC3)c2cc(N)nc3[nH]nnc23)c1 (centres unmarked) [Example 172, 7-(1-(3-(aminomethyl)phenyl)-3-((4-phenylbicyclo[2.2.2]octan-1-yl)amino)propyl)-3H-[1,2,3]triazolo[4,5-b]pyridin-5-amine] | 7.00 to 9.00 | 6.00 to 7.00 |
| Nc1cc(C(CCNC23CC4CC(CC(C4)C2)C3)c2ccccc2)c2nn[nH]c2n1 (centres unmarked) [Example 21, 7-{3-[(adamantan-1-yl)amino]-1-phenylpropyl}-3H-[1,2,3]triazolo[4,5-b]pyridin-5-amine] | 6.00 to 7.00 | 6.00 to 7.00 |
| Nc1cc(C(CNCC(F)(F)c2ccccc2)c2ccccc2)c2nn[nH]c2n1 (centres unmarked) [Example 226, 7-(2-((2,2-difluoro-2-phenylethyl)amino)-1-phenylethyl)-3H-[1,2,3]triazolo[4,5-b]pyridin-5-amine] | 6.00 to 7.00 | 6.00 to 7.00 |
